Literature values as cited in paper PMC8472685, “Nanocrystalline Suspensions of Irbesartan Enhance Oral Bioavailability by Improving Drug Solubility and Leading Endocytosis Uptake into the Intestine” (Pharmaceutics, 2021).

Assays:
[1] = for Aqueous solubility of crystalline form: forms A and B
[2] = set-up: method as in PMID 9438775
patients = tested on: patients; set-up: method as in PMID 9438776; details: 300 mg dose

| Aqueous solubility of crystalline form [1] [µg/mL] | BCS class ([1]; low aqueous solubility and high permeability) | Time of Cmax after oral administration [2] [h] | Oral bioavailability (BA) ([2]; in patients) | SMILES | Decrease in BP from baseline (patients) [mmHg] | Higher BP in treated compared to nontreated patients (so in the source) (patients) |
| --- | --- | --- | --- | --- | --- | --- |
| 11 | – | – | – | CCCCC1=NC2(CCCC2)C(=O)N1Cc1ccc(-c2ccccc2-c2nnn[nH]2)cc1 [form A, irbesartan] | – | – |
| 0.6 | – | – | – | CCCCC1=NC2(CCCC2)C(=O)N1Cc1ccc(-c2ccccc2-c2nnn[nH]2)cc1 [form B, irbesartan] | – | – |
| – | BCS class II | 1.5 to 2 | 60–80% | CCCCC1=NC2(CCCC2)C(=O)N1Cc1ccc(-c2ccccc2-c2nnn[nH]2)cc1 [irbesartan] | 10 | approximately 70% |
